The record followed here is ChEMBL document CHEMBL6115031, “Structure-Based Optimization of Moracin M as Potent and Selective PDE4 Inhibitors with Antipsoriasis Effects” (J Med Chem, 2025).

The source made the active and inactive calls.

Data set [1] can be described thus: Metabolic stability in rat liver microsomes assessed as half life at 1 uM incubated upto 60 mins in presence of NADPH by LC-MS/MS analysis. In kind it is ADME, Microsome. (In general: Microsomes from liver hold many membrane-bound enzymes, among them those of drug oxidation.)
Data set [2] concerns the target 3',5'-cyclic-AMP phosphodiesterase 4C (Homo sapiens, UniProt Q08493). In words: Inhibition of PDE4C1 (314 to 639 residues) (unknown origin) extracted from Escherichia coli BL21 cells using 3H-cAMP/3H-cGMP as substrate preincubated with compound for 15 mins followed by substrate addition by liquid scintillation counter.
Data set [3] relates to RAW264.7. In words: Cytotoxicity against mouse RAW264.7 cells assessed as reduction in cell viability at 5 to 80 uM incubated for 24 hrs by CCK-8 assay. In kind it is toxicity, cell-based. Particulars: raw264.7, 24 h, dose 5-80 µM. (Formazan colour is commonly taken as a measure of viable cells.)
Data set [4] relates to RAW264.7. In words: Anti-inflammatory activity in LPS-stimulated mouse RAW264.7 cells assessed as reduction in IL-1beta mRNA level pretreated with compound for 2 hrs followed by LPS stimulation and measured after 6 hrs by q-PCR analysis. The note with it: dose 5-20 µM, time 8.0 hrs. In kind it is functional, cell-based.
The test system of data set [5] is RAW264.7. In words: Anti-inflammatory activity in LPS-stimulated mouse RAW264.7 cells assessed as reduction in IL-6 mRNA level pretreated with compound for 2 hrs followed by LPS stimulation and measured after 6 hrs by q-PCR analysis. In kind it is functional, cell-based. Particulars: dose 5-20 µM, time 8.0 hrs.
Data set [6] deals with HaCaT. The data set can be described thus: Anti-inflammatory activity in M5- stimulated human HaCaT cells assessed as reduction in IL-17 mRNA level incubated for 24 hrs by q-PCR analysis. In kind it is functional, cell-based. Particulars: dose 5-20 µM.
Data set [7] relates to HaCaT. In words: Anti-psoriasis effect in M5-stimulated human HaCaT cells assessed as inhibition of cell proliferation at 20 uM pretreated with M5 followed by compound addition and measured after 24 hrs. In kind it is functional, cell-based.
Data set [8] relates to HaCaT. In words: Anti-psoriasis effect in M5-stimulated human HaCaT cells assessed as decrease in K6 protein expression at 20 uM pretreated with M5 followed by compound addition and measured after 24 hrs by Western blotting analysis. In kind it is functional, cell-based. For orientation: In western blotting, separated proteins are transferred to a membrane and probed.
The subject of data set [9] is HaCaT. In words: Inhibition of CREB phosphorylation in human HaCaT cells assessed as increase in pCREB/CREB ratio at 20 uM incubated for 2 hrs by Western blotting analysis. In kind it is cell-based.
Data set [10] is described as follows: Drug absorption in rat skin assessed as skin permeability by measuring steady-state transdermal flux administered topically as 0.3% ointment at 100 mg by HPLC analysis. In kind it is ADME, tissue-based, Skin of body. Particulars: in vivo, topical_or_ocular.
For data set [11], the system named is Mus musculus. In words: Anti-psoriasis effect in IMQ-induced female BALB/c mouse assessed as reduction in severity of skin erythema at 20 mg/kg administered topically as 0.3 % ointment pretreated with IMQ for 6 hrs followed by compound addition once daily for 7 days. In kind it is functional, organism-based. The note with it: time 7.0 day.
Data set [12] has as its system Mus musculus. The data set can be described thus: Anti-psoriasis effect in IMQ-induced female BALB/c mouse assessed as reduction in psoriasis area at 20 mg/kg administered topically as 0.3 % ointment pretreated with IMQ for 6 hrs followed by compound addition once daily for 7 days. In kind it is functional, organism-based. Particulars: time 7.0 day.
For data set [13], the system named is Mus musculus. In words: Anti-psoriasis effect in IMQ-induced female BALB/c mouse assessed as decrease in skin thickness at 20 mg/kg administered topically as 0.3 % ointment pretreated with IMQ for 6 hrs followed by compound addition once daily for 7 days. Particulars: time 7.0 day. In kind it is functional, organism-based.
For data set [14], the system named is Mus musculus. The data set can be described thus: Anti-psoriasis effect in IMQ-induced female BALB/c mouse assessed as change in body weight at 20 mg/kg administered topically as 0.3 % ointment pretreated with IMQ for 6 hrs followed by compound addition once daily for 7 days. In kind it is functional, organism-based. The note with it: time 7.0 day.
The subject of data set [15] is Mus musculus. In words: Anti-psoriasis effect in IMQ-induced female BALB/c mouse assessed as change in weight of spleen at 20 mg/kg administered topically as 0.3 % ointment pretreated with IMQ for 6 hrs followed by compound addition once daily for 7 days by H and E staining based analysis. In kind it is functional, organism-based. Particulars: time 7.0 day.
Data set [16] has as its system Mus musculus. The data set can be described thus: Anti-inflammatory activity in IMQ-induced psoriasis in female BALB/c mouse assessed as reduction in IL-1beta mRNA level at 20 mg/kg administered topically as 0.3 % ointment pretreated with IMQ for 6 hrs followed by compound addition once daily for 7 days by q-PCR analysis. In kind it is functional, organism-based. The note with it: time 7.0 day.

Data set [17] deals with Mus musculus. In words: Anti-inflammatory activity in IMQ-induced psoriasis in female BALB/c mouse assessed as reduction in CCL-20 mRNA level at 20 mg/kg administered topically as 0.3 % ointment pretreated with IMQ for 6 hrs followed by compound addition once daily for 7 days by q-PCR analysis. In kind it is functional, organism-based. The note with it: time 7.0 day.
Data set [18] concerns Mus musculus. The data set can be described thus: Anti-psoriasis effect in female BALB/c mouse model assessed as reduction in K6 protein expression at 20 mg/kg administered topically as 0.3 % ointment pretreated with IMQ for 6 hrs followed by compound addition once daily for 7 days by Western blotting analysis. In kind it is functional, organism-based. The note with it: time 7.0 day.

The subject of data set [19] is Mus musculus. The data set can be described thus: Anti-psoriasis effect in female BALB/c mouse model assessed as reduction in K17 protein expression at 20 mg/kg administered topically as 0.3 % ointment pretreated with IMQ for 6 hrs followed by compound addition once daily for 7 days by Western blotting analysis. In kind it is functional, organism-based. The note with it: time 7.0 day.

In data set [20] the test system is Mus musculus. The data set can be described thus: Anti-psoriasis effect in female BALB/c mouse model assessed as increase in K1 protein expression at 20 mg/kg administered topically as 0.3 % ointment pretreated with IMQ for 6 hrs followed by compound addition once daily for 7 days by Western blotting analysis. In kind it is functional, organism-based. Particulars: time 7.0 day.

Sequence of 3',5'-cyclic-AMP phosphodiesterase 4C (Q08493 whole entry, the tested form may be a part): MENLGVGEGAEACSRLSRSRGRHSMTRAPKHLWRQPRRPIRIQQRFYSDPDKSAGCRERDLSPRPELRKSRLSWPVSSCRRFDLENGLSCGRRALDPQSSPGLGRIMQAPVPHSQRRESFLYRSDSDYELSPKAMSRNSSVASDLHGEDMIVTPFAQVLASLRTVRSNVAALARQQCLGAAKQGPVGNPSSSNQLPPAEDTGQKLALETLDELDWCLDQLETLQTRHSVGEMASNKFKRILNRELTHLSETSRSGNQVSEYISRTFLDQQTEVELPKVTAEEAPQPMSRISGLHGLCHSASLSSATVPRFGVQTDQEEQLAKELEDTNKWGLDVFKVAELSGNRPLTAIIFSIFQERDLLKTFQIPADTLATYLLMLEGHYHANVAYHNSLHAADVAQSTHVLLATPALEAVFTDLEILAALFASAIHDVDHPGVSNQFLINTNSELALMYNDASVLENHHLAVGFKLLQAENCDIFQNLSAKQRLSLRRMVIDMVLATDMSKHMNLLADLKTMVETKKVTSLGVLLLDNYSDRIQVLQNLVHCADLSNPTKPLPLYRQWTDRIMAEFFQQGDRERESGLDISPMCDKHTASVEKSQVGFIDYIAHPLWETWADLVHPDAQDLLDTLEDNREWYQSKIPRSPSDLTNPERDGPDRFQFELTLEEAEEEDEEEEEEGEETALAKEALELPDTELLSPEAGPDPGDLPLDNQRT

As to `COC(=O)[C@H]1C[C@@H](Oc2c(O)ccc3cc(-c4ccc(OC(F)F)c(OCC5CC5)c4)oc23)CN1`, in data set [1], the half-life (commonly the time needed for the level to fall by half in the phase considered) at 1 µM turned out to be 22.9 min. Further, the IC50 (in general, the concentration needed to halve the response being measured) in data set [2] worked out at 0.747 µM. For the same compound, the Activity entry was “Non-toxic” with RAW264.7 [3], “Dose-dependent-effect” in the data set with RAW264.7 [4], “Dose-dependent-effect” with RAW264.7 [5] and “Dose-dependent-effect” in the data set with HaCaT [6]. Moreover, the result in the data set on HaCaT [7], in the data set with HaCaT [8], with Mus musculus [11], in the data set with Mus musculus [12], with Mus musculus [13] and in the data set with Mus musculus [14] was Active. The result in the data set with Mus musculus [15], in the data set on Mus musculus [16], in the data set with Mus musculus [17], in the data set on Mus musculus [18], in the data set on Mus musculus [19] and with Mus musculus [20] was Active. Moreover, the inhibition entry in the data set with HaCaT [9] is “Active”. Moreover, the Jss in data set [10] worked out at 0.43 ug/cm2.hr.
